The text below walks through data of patent US10266577B2, “GLP-1 derivatives, and uses thereof” (Novo Nordisk A/S, priority 2013, dated 2019).

The target of data set [1] is T1, human GLP-1 receptor (Homo sapiens, UniProt P43220).
T1 construct: expressed in transfected cells; host or cells: BHK cells (parent line BHKTS13), clone FCW467-12A; membrane preparation
As to the kind of experiment: GLP-1 receptor binding: competitive binding assay (125I-GLP-1, SPA) on isolated membranes at low and high HSA. Conditions: displacement of 125I-GLP-1; for pIC50: high serum albumin (2.0% HSA final assay concentration). A general note: Displacement assays read how much labelled ligand stays bound in the presence of the test substance.
Description: The purpose of this example is to test the receptor binding of the GLP-1 derivatives in vitro. The receptor binding is a measure of affinity of a derivative for the human GLP-1 receptor.
In this type of assay a labelled ligand (in this case ^125I-GLP-1) is bound to the receptor. Each derivative is added in a series of concentrations to isolated membranes containing the human GLP-1 receptor and displacement of the labelled ligand is monitored. The receptor binding is reported as the concentration at which half of the labelled ligand is displaced from the receptor, the IC50 value.
The following chemicals were used in the assay: Human serum albumin (HSA) (Sigma A1653), DMEM w/o phenol red (Gibco 11880-028), Pen/strep (Invitrogen 15140-122), G418 (Invitrogen 10131-027), 1 M Hepes (Gibco 15630), EDTA (Invitrogen 15575-038), PBS (Invitrogen 14190-094), fetal calf serum (Invitrogen 16140-071), EGTA, MgCl2 (Merck 1.05832.1000), Tween 20 (Amresco 0850C335), SPA particles (wheat germ agglutinin (WGA) SPA beads, Perkin Elmer RPNQ0001), [^125I]-GLP-1]-(7-36)NH2 (produced in-house), OptiPlate™-96 (Packard 6005290).
Buffer 1 consisted of 20 mM Na-HEPES plus 10 mM EDTA and pH was adjusted to 7.4. Buffer 2 consisted of 20 mM Na-HEPES plus 0.1 mM EDTA and pH was adjusted to 7.4. Assay buffer consisted of 50 mM HEPES supplemented with 5 mM EGTA, 5 mM MgCl2, 0.005% Tween 20 and pH was adjusted to 7.4. An 8% albumin stock consisted of HSA dissolved at 8% (w/v) in assay buffer. An 0.02% albumin stock consisted of HSA dissolved at 0.02% (w/v) in assay buffer.
The cells express the human GLP-1 receptor.
The cells were grown at 5% CO2 in DMEM, 10% fetal calf serum, 1% Pen/Strep (Penicillin/Streptomycin) and 1.0 mg/ml of the selection marker G418.
To make a membrane preparation the cells were grown to approximately 80% confluence. The cells were washed twice in phosphate-buffered saline and harvested. The cells were pelleted using a brief centrifugation and the cell pellet was kept on ice. The cell pellet was homogenised with ULTRA-THURRAX™ dispersing instrument for 20-30 seconds in a suitable amount of buffer 1 (e.g., 10 ml). The homogenate was centrifuged for 15 minutes. The pellet was re-suspended (homogenised) in 10 ml buffer 2 and centrifuged. This step was repeated once more. The resulting pellet was re-suspended in buffer 2 and the protein concentration was determined. The membranes were aliquoted and stored at minus 80° C.
For the receptor binding assay in the presence of low HSA (0.005%) 50 μl of the assay buffer was added to each well of an assay plate. Assay continued with step 3.
For the receptor binding assay in the presence of high HSA (2%) 50 μl of the 8% albumin stock was added to each well of an assay plate. Assay continued with step 3.
Cell membrane aliquots were thawed and diluted to their working concentration. Fifty μl were added to each well in the assay plate.
WGA SPA beads were suspended in assay buffer at 20 mg/ml. The suspension was diluted to 10 mg/ml in assay buffer just prior to addition to the assay plate. Fifty μl were added to each well in the assay plate.
The incubation was started by adding 25 μl of 480 pM solution of [^125I]-GLP-1]-(7-36)NH2 to each well of the assay plate. A 25 μl aliquot was reserved for measuring total counts/well.
The assay plate was incubated for 2 h at 30° C.
The assay plate was centrifuged for 10 min.
The assay plate was read in a Packard TopCount NXT instrument.
The data from the TopCount instrument were transferred to GraphPad Prism software. The software averaged the values for the replicates and performed a non-linear regression. IC50 values were calculated by the software and reported in nM.

The nature of data set [2]: in vivo. Conditions: male, Göttingen, minipig, iv.
Description: The purpose of this study is to determine the protraction in vivo of the GLP-1 derivatives after i.v. administration to minipigs, i.e. the prolongation of their time in the body and thereby their time of action. This is done in a pharmacokinetic (PK) study, where the terminal half-life of the derivative in question is determined. By terminal half-life is meant the time it takes to halve a certain plasma concentration in the terminal elimination phase.
Male Göttingen minipigs were obtained from Ellegaard Göttingen Minipigs (Dalmose, Denmark) approximately 7-14 months of age and weighing approximately 16-35 kg were used in the studies. The minipigs were housed either individually (pigs with permanent catheters) or in a group and fed restrictedly once or twice daily with SDS minipig diet (Special Diets Services, Essex, UK).
After at least 2 weeks of acclimatisation two permanent central venous catheters were implanted in vena cava caudalis or cranialis in each animal. The animals were allowed 1 week recovery after the surgery, and were then used for repeated pharmacokinetic studies with a suitable wash-out period between successive GLP-1 derivative dosings.
Blood samples (for example 0.8 ml) were collected in EDTA buffer (8 mM) and then centrifuged at 4° C. and 1942G for 10 minutes.
Plasma was pipetted into Micronic tubes on dry ice, and kept at −20° C. until analysed for plasma concentration of the respective GLP-1 compound using LOCI. Individual plasma concentration-time profiles were analyzed by a non-compartmental pharmacokinetic method in Phoenix v. 6.2 (Pharsight Inc., Mountain View, Calif., USA), or other relevant software for PK analysis, and the resulting terminal half-lives (harmonic mean) determined.
The target of data set [3] is T1, human GLP-1 receptor. As to the kind of experiment: In vitro potency: CRE luciferase reporter gene assay in BHK cells expressing the human GLP-1 receptor. In kind it is cell-based. Particulars: whole cell reporter gene assay, BHK clone FCW467-12A/KZ10-1; averages of at least two replicates. A general note: Reporter assays use an easily measured gene product as a stand-in for the process of interest.
Description: The purpose of this example is to test the activity, or potency, of the GLP-1 derivatives in vitro. The in vitro potency is the measure of human GLP-1 receptor activation in a whole cell assay.
In vitro potency was determined by measuring the response of the human GLP-1 receptor in a reporter gene assay. The assay was performed in a stably transfected BHK cell line that expresses the human GLP-1 receptor and contains the DNA for the cAMP response element (CRE) coupled to a promoter and the gene for firefly luciferase (CRE luciferase). When the human GLP-1 receptor is activated it results in the production of cAMP, which in turn results in the luciferase protein being expressed. When assay incubation is completed the luciferase substrate (luciferin) is added and the enzyme converts luciferin to oxyluciferin to produce bioluminescence. The luminescence is measured as the readout for the assay.
The cells were cultured at 5% CO2 in Cell Culture Medium. They were aliquoted and stored in liquid nitrogen. Before each assay an aliquot is taken up and washed twice in PBS before being suspended at the desired concentration in the assay specific buffer. For 96-well plates the suspension was made to give a final concentration of 5×10^3 cells/well.
The following chemicals were used in the assay: Pluronic F-68 (10%) (Gibco 2404), human serum albumin (HSA) (Sigma A9511), ovalbumin (Sigma A5503), DMEM w/o phenol red (Gibco 11880-028), 1 M Hepes (Gibco 15630), Glutamax 100× (Gibco 35050) and steadylite plus (PerkinElmer 6016757).
Cell Culture Medium consisted of DMEM medium with 10% FBS (Fetal Bovine Serum; Invitrogen 16140-071), 1 mg/ml G418 (Invitrogen 15140-122), 240 nM MTX (methotrexate; Sigma M9929) and 1% pen/strep (penicillin/streptomycin; Invitrogen 15140-122).
Assay Medium consisted of DMEM w/o phenol red, 10 mM Hepes and 1× Glutamax. The Assay Buffer consisted of 2% ovalbumin and 0.2% Pluronic F-68 in Assay Medium.
1) Cell stocks were thawed in a 37° C. water bath.
2) Cells were washed three times in PBS.
3) The cells were counted and adjusted to 5×10^3 cells/50 μl (1×10^5 cells/ml) in Assay Medium. A 50 μl aliquot of cells was transferred to each well in the assay plate.
4) Stocks of the test compounds and reference compounds were diluted to a concentration of 0.2 pM in Assay Buffer. […] Compounds were tested at the following final concentrations: 1×10^−7 M, 1×10^−8 M; 1×10^−9 M, 1×10^−10 M, 1×10^−11 M, 1×10^−12 M, 1×10^−13 M, and 1×10^−14 M. 6) The assay plate was incubated for 3 h in a 5% CO2 incubator at 37° C. 7) The assay plate was removed from the incubator and allowed to stand at room temperature for 15 min. 8) A 100 μl aliquot of steadylite plus reagent was added to each well of the assay plate (reagent was light sensitive). 9) Each assay plate was covered with aluminum foil to protect it from light and shaken for 30 min at room temperature. 10) Each assay plate was read in a Packard TopCount NXT instrument. Calculations and Results
The data from the TopCount instrument were transferred to GraphPad Prism software. The software performs a non-linear regression (log(agonist) vs response).
A minimum of two replicates was measured for each sample. The reported values are averages of the replicates.

As usually defined, the pIC50 is the IC50 on a negative log10 scale, so that one unit is a factor of ten. A low value points to a large IC50. The half-life is the time in which the quantity being followed falls by half. As a reminder, the pEC50 is the negative decadic logarithm of the EC50, by convention in mol/L. A lower pEC50 goes with a high EC50.

pEC50, pIC50: −log10 of the molar value. Numbered stars: 1 amine (or outer) side, 2 acyl side, 3 side chain; on linkers, the order of the positions; unused ones are H or OH. Bridge positions count the residues as written; N and C are the ends. Square brackets hold non-standard residues; d marks the D form. Side chains are listed from the residue outwards. Ends that are not written are not given here. Peptide text beside a SMILES is read from it. I, II: the chains in the order shown. * marks the point of attachment. C18 diacid = O=C(O)CCCCCCCCCCCCCCCCC(=O)*; γGlu = O=C(O)[C@H](CCC(=O)[*:2])N[*:1]; εLys = N[C@@H](CCCCN[*:1])C(=O)[*:2]; AEEA = NCCOCCOCC(=O)O; Aib = CC(C)(N)C(=O)O

T1 sequence (P43220 24-463): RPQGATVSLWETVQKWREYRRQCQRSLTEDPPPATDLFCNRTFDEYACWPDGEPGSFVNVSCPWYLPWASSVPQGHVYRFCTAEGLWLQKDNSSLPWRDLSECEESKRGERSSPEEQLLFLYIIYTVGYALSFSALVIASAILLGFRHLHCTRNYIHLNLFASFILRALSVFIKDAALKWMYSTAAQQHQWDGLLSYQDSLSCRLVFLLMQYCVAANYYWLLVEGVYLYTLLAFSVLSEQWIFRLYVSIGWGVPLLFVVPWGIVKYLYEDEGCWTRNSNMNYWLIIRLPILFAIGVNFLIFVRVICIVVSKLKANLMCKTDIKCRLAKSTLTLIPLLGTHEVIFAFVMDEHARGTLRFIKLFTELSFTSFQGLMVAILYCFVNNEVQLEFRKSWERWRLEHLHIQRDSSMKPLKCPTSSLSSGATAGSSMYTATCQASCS

`CC[C@H](C)[C@H](NC(=O)[C@H](Cc1ccccc1)NC(=O)[C@H](CCC(=O)O)NC(=O)[C@H](CCCCNC(=O)[C@@H](N)CCCCNC(=O)COCCOCCNC(=O)COCCOCCNC(=O)CC[C@H](NC(=O)CCCCCCCCCCCCCCCCC(=O)O)C(=O)O)NC(=O)[C@H](C)NC(=O)[C@H](C)NC(=O)[C@H](CCC(N)=O)NC(=O)[C@H](CCC(=O)O)NC(=O)[C@H](CCC(=O)O)NC(=O)[C@H](CC(C)C)NC(=O)[C@H](Cc1ccc(O)cc1)NC(=O)[C@H](CO)NC(=O)[C@H](CO)NC(=O)[C@@H](NC(=O)[C@H](CC(=O)O)NC(=O)[C@H](CO)NC(=O)[C@@H](NC(=O)[C@H](Cc1ccccc1)NC(=O)[C@@H](NC(=O)CNC(=O)[C@H](CCC(=O)O)NC(=O)C(C)(C)NC(=O)[C@@H](N)Cc1c[nH]cn1)[C@@H](C)O)[C@@H](C)O)C(C)C)C(=O)N[C@@H](CCCCNC(=O)[C@@H](N)CCCCNC(=O)COCCOCCNC(=O)COCCOCCNC(=O)CC[C@H](NC(=O)CCCCCCCCCCCCCCCCC(=O)O)C(=O)O)C(=O)N[C@@H](Cc1c[nH]c2ccccc12)C(=O)N[C@@H](CC(C)C)C(=O)N[C@H](C(=O)N[C@@H](CCCNC(=N)N)C(=O)NCC(=O)N[C@@H](CCCNC(=N)N)C(=O)N[C@@H](CCCCNC(=O)[C@@H](N)CCCCNC(=O)COCCOCCNC(=O)COCCOCCNC(=O)CC[C@H](NC(=O)CCCCCCCCCCCCCCCCC(=O)O)C(=O)O)C(=O)O)C(C)C` [Example 11] (H-H[Aib]EGTFTSDVSSYLEEQAAK([εLys-AEEA-AEEA-γGlu-C18 diacid])EFIK([εLys-AEEA-AEEA-γGlu-C18 diacid])WLVRGRK([εLys-AEEA-AEEA-γGlu-C18 diacid])-OH; N-terminus and C-terminus assumed) had a pIC50 in data set [1] of less than 6.00.
Consider `CC[C@H](C)[C@H](NC(=O)[C@H](Cc1ccccc1)NC(=O)[C@H](CCCCNC(=O)COCCOCCNC(=O)COCCOCCNC(=O)CC[C@H](NC(=O)CCCCCCCCCCCCCCCCC(=O)O)C(=O)O)NC(=O)[C@H](CCCNC(=N)N)NC(=O)[C@H](C)NC(=O)[C@H](C)NC(=O)[C@H](CCC(N)=O)NC(=O)[C@H](CCC(=O)O)NC(=O)[C@H](CCC(=O)O)NC(=O)[C@H](CC(C)C)NC(=O)[C@H](Cc1ccc(O)cc1)NC(=O)[C@H](CCCCNC(=O)COCCOCCNC(=O)COCCOCCNC(=O)CC[C@H](NC(=O)CCCCCCCCCCCCCCCCC(=O)O)C(=O)O)NC(=O)[C@H](CO)NC(=O)[C@@H](NC(=O)[C@H](CC(=O)O)NC(=O)[C@H](CO)NC(=O)[C@@H](NC(=O)[C@H](Cc1ccccc1)NC(=O)[C@@H](NC(=O)CNC(=O)[C@H](CCC(=O)O)NC(=O)C(C)(C)NC(=O)[C@@H](N)Cc1c[nH]cn1)[C@@H](C)O)[C@@H](C)O)C(C)C)C(=O)N[C@@H](C)C(=O)N[C@@H](Cc1c[nH]c2ccccc12)C(=O)N[C@@H](CC(C)C)C(=O)N[C@H](C(=O)N[C@@H](CCCNC(=N)N)C(=O)NCC(=O)N[C@@H](CCCNC(=N)N)C(=O)N[C@@H](CCCCNC(=O)COCCOCCNC(=O)COCCOCCNC(=O)CC[C@H](NC(=O)CCCCCCCCCCCCCCCCC(=O)O)C(=O)O)C(=O)O)C(C)C` [Example 5] (H-H[Aib]EGTFTSDVSK([AEEA-AEEA-γGlu-C18 diacid])YLEEQAARK([AEEA-AEEA-γGlu-C18 diacid])FIAWLVRGRK([AEEA-AEEA-γGlu-C18 diacid])-OH; N-terminus and C-terminus assumed), for which the pIC50 in data set [1] was less than 6.00.
As for `CC[C@H](C)[C@H](NC(=O)[C@H](Cc1ccccc1)NC(=O)[C@H](CCCCNC(=O)COCCOCCNC(=O)COCCOCCNC(=O)CC[C@H](NC(=O)CCCCCCCCCCCCCCCCC(=O)O)C(=O)O)NC(=O)[C@H](CCCNC(=N)N)NC(=O)[C@H](C)NC(=O)[C@H](C)NC(=O)[C@H](CCC(N)=O)NC(=O)[C@H](CCC(=O)O)NC(=O)[C@H](CCC(=O)O)NC(=O)[C@H](CC(C)C)NC(=O)[C@H](Cc1ccc(O)cc1)NC(=O)[C@H](CO)NC(=O)[C@H](CO)NC(=O)[C@@H](NC(=O)[C@H](CC(=O)O)NC(=O)[C@H](CO)NC(=O)[C@@H](NC(=O)[C@H](Cc1ccccc1)NC(=O)[C@@H](NC(=O)CNC(=O)[C@H](CCC(=O)O)NC(=O)C(C)(C)NC(=O)[C@@H](N)Cc1c[nH]cn1)[C@@H](C)O)[C@@H](C)O)C(C)C)C(=O)N[C@@H](CCCCNC(=O)COCCOCCNC(=O)COCCOCCNC(=O)CC[C@H](NC(=O)CCCCCCCCCCCCCCCCC(=O)O)C(=O)O)C(=O)N[C@@H](Cc1c[nH]c2ccccc12)C(=O)N[C@@H](CC(C)C)C(=O)N[C@H](C(=O)N[C@@H](CCCNC(=N)N)C(=O)NCC(=O)N[C@@H](CCCNC(=N)N)C(=O)N[C@@H](CCCCNC(=O)COCCOCCNC(=O)COCCOCCNC(=O)CC[C@H](NC(=O)CCCCCCCCCCCCCCCCC(=O)O)C(=O)O)C(=O)O)C(C)C` [Example 10] (H-H[Aib]EGTFTSDVSSYLEEQAARK([AEEA-AEEA-γGlu-C18 diacid])FIK([AEEA-AEEA-γGlu-C18 diacid])WLVRGRK([AEEA-AEEA-γGlu-C18 diacid])-OH; N-terminus and C-terminus assumed), the half-life in data set [2] was 158 h. This molecule also showed a pEC50 in data set [3] of 10.59.
`CC[C@H](C)[C@H](NC(=O)[C@H](Cc1ccccc1)NC(=O)[C@H](CCCCNC(=O)[C@@H](N)CCCCNC(=O)COCCOCCNC(=O)COCCOCCNC(=O)CC[C@H](NC(=O)CCCCCCCCCCCCCCCCC(=O)O)C(=O)O)NC(=O)[C@H](CCCNC(=N)N)NC(=O)[C@H](C)NC(=O)[C@H](C)NC(=O)[C@H](CCC(N)=O)NC(=O)[C@H](CCC(=O)O)NC(=O)[C@H](CCC(=O)O)NC(=O)[C@H](CC(C)C)NC(=O)[C@H](Cc1ccc(O)cc1)NC(=O)[C@H](CCCCNC(=O)[C@@H](N)CCCCNC(=O)COCCOCCNC(=O)COCCOCCNC(=O)CC[C@H](NC(=O)CCCCCCCCCCCCCCCCC(=O)O)C(=O)O)NC(=O)[C@H](CO)NC(=O)[C@@H](NC(=O)[C@H](CC(=O)O)NC(=O)[C@H](CO)NC(=O)[C@@H](NC(=O)[C@H](Cc1ccccc1)NC(=O)[C@@H](NC(=O)CNC(=O)[C@H](CCC(=O)O)NC(=O)C(C)(C)NC(=O)[C@@H](N)Cc1c[nH]cn1)[C@@H](C)O)[C@@H](C)O)C(C)C)C(=O)N[C@@H](C)C(=O)N[C@@H](Cc1c[nH]c2ccccc12)C(=O)N[C@@H](CC(C)C)C(=O)N[C@H](C(=O)N[C@@H](CCCNC(=N)N)C(=O)NCC(=O)N[C@@H](CCCNC(=N)N)C(=O)N[C@@H](CCCCNC(=O)[C@@H](N)CCCCNC(=O)COCCOCCNC(=O)COCCOCCNC(=O)CC[C@H](NC(=O)CCCCCCCCCCCCCCCCC(=O)O)C(=O)O)C(=O)O)C(C)C` [Example 6] (H-H[Aib]EGTFTSDVSK([εLys-AEEA-AEEA-γGlu-C18 diacid])YLEEQAARK([εLys-AEEA-AEEA-γGlu-C18 diacid])FIAWLVRGRK([εLys-AEEA-AEEA-γGlu-C18 diacid])-OH; N-terminus and C-terminus assumed): in data set [1] (Low HSA IC50, low serum albumin (max. 0.001% final assay concentration)), the Low HSA IC50 stood at 0.4 nM. Moreover, in data set [1], the pIC50 was less than 6.00. Also, the half-life in data set [2] was 103 h.
Turning to “I: H[Aib]EGTFTSDVSKYLEGQAARKFIAWLVRGRK / II: {C18 diacid-γGlu}-SSSSSS / III: {C18 diacid-γGlu}-SSSSSS / IV: {C18 diacid-γGlu}-SSSSSS (amide I:12-III:C, I:21-II:C, I:31-IV:C) [Example 9]”, the pIC50 in data set [1] was less than 6.00. Besides, the pEC50 in data set [3] is 10.17.
Regarding `CC[C@H](C)[C@H](NC(=O)[C@H](Cc1ccccc1)NC(=O)[C@H](CCC(=O)O)NC(=O)[C@H](CCCNC(=N)N)NC(=O)[C@H](C)NC(=O)[C@H](C)NC(=O)[C@H](CCC(N)=O)NC(=O)[C@H](CCCCNC(=O)COCCOCCNC(=O)COCCOCCNC(=O)[C@@H](N)CCCCNC(=O)CCCCCCCCCCCCCCCS(=O)(=O)O)NC(=O)[C@H](CCC(=O)O)NC(=O)[C@H](CC(C)C)NC(=O)[C@H](Cc1ccc(O)cc1)NC(=O)[C@H](CCCCNC(=O)COCCOCCNC(=O)COCCOCCNC(=O)[C@@H](N)CCCCNC(=O)CCCCCCCCCCCCCCCS(=O)(=O)O)NC(=O)[C@H](CO)NC(=O)[C@@H](NC(=O)[C@H](CC(=O)O)NC(=O)[C@H](CO)NC(=O)[C@@H](NC(=O)[C@H](Cc1ccccc1)NC(=O)[C@@H](NC(=O)CNC(=O)[C@H](CCC(=O)O)NC(=O)C(C)(C)NC(=O)[C@@H](N)Cc1c[nH]cn1)[C@@H](C)O)[C@@H](C)O)C(C)C)C(=O)N[C@@H](CCCCNC(=O)COCCOCCNC(=O)COCCOCCNC(=O)[C@@H](N)CCCCNC(=O)CCCCCCCCCCCCCCCS(=O)(=O)O)C(=O)N[C@@H](Cc1c[nH]c2ccccc12)C(=O)N[C@@H](CC(C)C)C(=O)N[C@H](C(=O)N[C@@H](CCCNC(=N)N)C(=O)NCC(=O)N[C@@H](CCCNC(=N)N)C(=O)NCC(=O)O)C(C)C` [Example 13], the pEC50 in data set [3] was 10.59.
With `CC[C@H](C)[C@H](NC(=O)[C@H](Cc1ccccc1)NC(=O)[C@H](CCC(=O)O)NC(=O)[C@H](CCCNC(=N)N)NC(=O)[C@H](C)NC(=O)[C@H](C)NC(=O)[C@H](CCC(N)=O)NC(=O)[C@H](CCCCNC(=O)COCCOCCNC(=O)COCCOCCNC(=O)COCCOCCNC(=O)COCCOCCNC(=O)COCCOCCNC(=O)[C@@H](N)CCCCNC(=O)[C@@H](N)CCCCNC(=O)[C@@H](N)CCCCNC(=O)CCCCCCCCCCCCCCCCC(=O)O)NC(=O)[C@H](CCC(=O)O)NC(=O)[C@H](CC(C)C)NC(=O)[C@H](Cc1ccc(O)cc1)NC(=O)[C@H](CCCCNC(=O)COCCOCCNC(=O)COCCOCCNC(=O)COCCOCCNC(=O)COCCOCCNC(=O)COCCOCCNC(=O)[C@@H](N)CCCCNC(=O)[C@@H](N)CCCCNC(=O)[C@@H](N)CCCCNC(=O)CCCCCCCCCCCCCCCCC(=O)O)NC(=O)[C@H](CO)NC(=O)[C@@H](NC(=O)[C@H](CC(=O)O)NC(=O)[C@H](CO)NC(=O)[C@@H](NC(=O)[C@H](Cc1ccccc1)NC(=O)[C@@H](NC(=O)CNC(=O)[C@H](CCC(=O)O)NC(=O)C(C)(C)NC(=O)[C@@H](N)Cc1c[nH]cn1)[C@@H](C)O)[C@@H](C)O)C(C)C)C(=O)N[C@@H](CCCCNC(=O)COCCOCCNC(=O)COCCOCCNC(=O)COCCOCCNC(=O)COCCOCCNC(=O)COCCOCCNC(=O)[C@@H](N)CCCCNC(=O)[C@@H](N)CCCCNC(=O)[C@@H](N)CCCCNC(=O)CCCCCCCCCCCCCCCCC(=O)O)C(=O)N[C@@H](Cc1c[nH]c2ccccc12)C(=O)N[C@@H](CC(C)C)C(=O)N[C@H](C(=O)N[C@@H](CCCNC(=N)N)C(=O)NCC(=O)N[C@@H](CCCNC(=N)N)C(=O)NCC(=O)O)C(C)C` [Example 17], the half-life in data set [2] was 143 h. For the same molecule, the pEC50 in data set [3] is 10.74.
